According to article PMC7531004, “Discovery of gramicidin A analogues with altered activities by multidimensional screening of a one-bead-one-compound library” (Nature Communications, 2020):
Where a SMILES comes first, the peptide text is derived from it. [ ]: non-standard residue; d: D form. The star is where a group is joined. NHCH2CH2OH = OCCN*; For = O=C*

Legend:
[1] = H+/Na+ transport assay of bead-derived peptides (one-point); type: biochemical; parameters: key: relative activity; mean of two control wells = 1.00; settings: bead-derived peptide solution, EYPC/EYPG LUVs;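 further: relative to parent gramicidin A activity set to 1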
Method in brief: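 Values are normalized fluorescence, with Triton X-100 defining 100% and untreated LUVs 0%, and the two control wells averaging 1.00. Vesicles carried 1.0 mM pyranine and included egg yolk phosphatidylglycerol. Peptides were incubated with them 30 min at room temperature.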

[2] = test system: Streptococcus pyogenes SSI-9; experiment: Antibacterial activity assay of bead-derived peptides (three concentrations); type: cell-based; parameters: key: +++: inhibition by the 640-fold diluted peptide solution; ++: inhibition by the 160-fold diluted solution; +: inhibition by the 40-fold diluted solution; -: no inhibition; settings: S. pyogenes, bead-derived peptide solution, three concentrations
Method in brief: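 Library peptide stock applied undiluted, 4-fold and 16-fold diluted in DMSO to S. pyogenes SSI-9 (2 × 10^5 CFU) in cation-adjusted Mueller Hinton broth with 5% laked horse blood. After 18 h at 37 °C, growth judged by visible cell precipitation.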

[3] = cell viability/%
Method in brief: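 P388 cells at 1 × 10^4 cells/mL (final) were exposed to library peptides (stocks diluted 250-fold in RPMI1640/10% FBS) for 92 h at 37 °C, 5% CO2. Viable cells were counted by WST-1/1-methoxy PMS (4 h), absorbance 415 nm, and expressed as cell viability (%).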

Row | Compound | H+/Na+ transport activity normalized against the value of 1 (1.00) [1] | antibacterial activity [2] | viability [3]
1 | CNC(=O)C[C@@H](NC(=O)[C@@H](NC(=O)[C@H](NC(=O)[C@H](C)NC(=O)[C@@H](CC(C)C)NC(=O)[C@H](C)NC(=O)CNC(=O)[C@@H](NC=O)C(C)C)C(C)C)C(C)C)C(=O)N[C@@H](Cc1c[nH]c2ccccc12)C(=O)N[C@H](CC(C)C)C(=O)N[C@@H](Cc1c[nH]c2ccccc12)C(=O)N[C@H](CC(C)C)C(=O)N[C@@H](Cc1c[nH]c2ccccc12)C(=O)N[C@@H](C(=O)N[C@@H](Cc1c[nH]c2ccccc12)C(=O)NCCO)C(C)C [compound 7204] (For-VGA[dL]A[dV]V[dD](NHMe)W[dL]W[dL]W[dV]W-NHCH2CH2OH) | 1.17 | - | 100%
2 | CC(C)C[C@@H](NC(=O)[C@H](C)NC(=O)CNC(=O)[C@@H](NC=O)C(C)C)C(=O)N[C@@H](C)C(=O)N[C@H](CC(C)C)C(=O)N[C@H](C(=O)N[C@@H](C(=O)N[C@@H](Cc1c[nH]c2ccccc12)C(=O)N[C@@H](C(=O)N[C@@H](Cc1c[nH]c2ccccc12)C(=O)N[C@@H](C(=O)N[C@@H](Cc1c[nH]c2ccccc12)C(=O)N[C@@H](C(=O)N[C@@H](Cc1c[nH]c2ccccc12)C(=O)NCCO)C(C)C)C(C)C)C(C)C)[C@H](C)O)C(C)C [compound 10609] (For-VGA[dL]A[dL]V[dT]W[dV]W[dV]W[dV]W-NHCH2CH2OH) | 1.15 | - | 79.4%
3 | CC(C)C[C@@H](NC(=O)[C@H](C)NC(=O)[C@H](NC(=O)[C@H](C)NC(=O)CNC(=O)[C@@H](NC=O)C(C)C)[C@H](C)O)C(=O)N[C@H](C(=O)N[C@H](CC(C)C)C(=O)N[C@@H](Cc1c[nH]c2ccccc12)C(=O)N[C@@H](C(=O)N[C@@H](Cc1c[nH]c2ccccc12)C(=O)N[C@@H](C(=O)N[C@@H](Cc1c[nH]c2ccccc12)C(=O)N[C@@H](C(=O)N[C@@H](Cc1c[nH]c2ccccc12)C(=O)NCCO)C(C)C)C(C)C)C(C)C)C(C)C [compound 1842] (For-VGA[dT]A[dL]V[dL]W[dV]W[dV]W[dV]W-NHCH2CH2OH) | 1.26 | - | 100%
4 | CC(C)C[C@@H](NC(=O)[C@H](C)NC(=O)CNC(=O)[C@@H](NC=O)C(C)C)C(=O)N[C@@H](C)C(=O)N[C@@H](C(=O)N[C@H](C(=O)N[C@@H](C(=O)N[C@@H](Cc1c[nH]c2ccccc12)C(=O)N[C@@H](C(=O)N[C@@H](Cc1c[nH]c2ccccc12)C(=O)N[C@@H](C(=O)N[C@@H](Cc1c[nH]c2ccccc12)C(=O)N[C@@H](C(=O)N[C@@H](Cc1c[nH]c2ccccc12)C(=O)NCCO)C(C)C)C(C)C)C(C)C)[C@H](C)O)C(C)C)C(C)C [compound 1520] (For-VGA[dL]A[dV]V[dT]W[dV]W[dV]W[dV]W-NHCH2CH2OH) | 1.04 | - | 100%
5 | CC(C)C[C@@H](NC(=O)[C@H](C)NC(=O)[C@H](NC(=O)[C@H](C)NC(=O)CNC(=O)[C@@H](NC=O)C(C)C)C(C)C)C(=O)N[C@H](C(=O)N[C@@H](C(=O)N[C@@H](Cc1c[nH]c2ccccc12)C(=O)N[C@@H](C(=O)N[C@@H](Cc1c[nH]c2ccccc12)C(=O)N[C@H](CC(C)C)C(=O)N[C@@H](Cc1c[nH]c2ccccc12)C(=O)N[C@@H](C(=O)N[C@@H](Cc1c[nH]c2ccccc12)C(=O)NCCO)C(C)C)C(C)C)C(C)C)C(C)C [compound 11268] (For-VGA[dV]A[dL]V[dV]W[dV]W[dL]W[dV]W-NHCH2CH2OH) | 1.06 | + | 100%
6 | CC(C)C[C@@H](NC(=O)[C@H](C)NC(=O)CNC(=O)[C@@H](NC=O)C(C)C)C(=O)N[C@@H](C)C(=O)N[C@H](CC(C)C)C(=O)N[C@H](C(=O)N[C@H](CC(C)C)C(=O)N[C@@H](Cc1c[nH]c2ccccc12)C(=O)N[C@H](CC(C)C)C(=O)N[C@@H](Cc1c[nH]c2ccccc12)C(=O)N[C@@H](C(=O)N[C@@H](Cc1c[nH]c2ccccc12)C(=O)N[C@@H](C(=O)N[C@@H](Cc1c[nH]c2ccccc12)C(=O)NCCO)[C@H](C)O)[C@H](C)O)C(C)C [compound 7156] (For-VGA[dL]A[dL]V[dL]W[dL]W[dT]W[dT]W-NHCH2CH2OH) | 1.08 | - | 100%
7 | CC(C)C[C@@H](NC(=O)[C@H](C)NC(=O)[C@H](NC(=O)[C@H](C)NC(=O)CNC(=O)[C@@H](NC=O)C(C)C)[C@H](C)O)C(=O)N[C@H](C(=O)N[C@@H](C(=O)N[C@@H](Cc1c[nH]c2ccccc12)C(=O)N[C@@H](C(=O)N[C@@H](Cc1c[nH]c2ccccc12)C(=O)N[C@H](CC(C)C)C(=O)N[C@@H](Cc1c[nH]c2ccccc12)C(=O)N[C@H](CC(C)C)C(=O)N[C@@H](Cc1c[nH]c2ccccc12)C(=O)NCCO)[C@H](C)O)C(C)C)C(C)C [compound 6896] (For-VGA[dT]A[dL]V[dV]W[dT]W[dL]W[dL]W-NHCH2CH2OH) | 1.18 | - | 100%
8 | CC(C)C[C@@H](NC(=O)[C@H](C)NC(=O)[C@H](NC(=O)[C@H](C)NC(=O)CNC(=O)[C@@H](NC=O)C(C)C)[C@H](C)O)C(=O)N[C@H](C(=O)N[C@H](CC(C)C)C(=O)N[C@@H](Cc1c[nH]c2ccccc12)C(=O)N[C@@H](C(=O)N[C@@H](Cc1c[nH]c2ccccc12)C(=O)N[C@@H](C(=O)N[C@@H](Cc1c[nH]c2ccccc12)C(=O)N[C@@H](C(=O)N[C@@H](Cc1c[nH]c2ccccc12)C(=O)NCCO)C(C)C)C(C)C)[C@H](C)O)C(C)C [compound 2139] (For-VGA[dT]A[dL]V[dL]W[dT]W[dV]W[dV]W-NHCH2CH2OH) | 1.05 | - | 100%
9 | CC(C)C[C@@H](NC(=O)[C@H](Cc1c[nH]c2ccccc12)NC(=O)[C@H](NC(=O)[C@H](Cc1c[nH]c2ccccc12)NC(=O)[C@H](NC(=O)[C@@H](NC(=O)[C@H](NC(=O)[C@H](C)NC(=O)[C@H](NC(=O)[C@H](C)NC(=O)CNC(=O)[C@@H](NC=O)C(C)C)[C@H](C)O)C(C)C)C(C)C)C(C)C)[C@H](C)O)C(=O)N[C@@H](Cc1c[nH]c2ccccc12)C(=O)N[C@@H](C(=O)N[C@@H](Cc1c[nH]c2ccccc12)C(=O)NCCO)C(C)C [compound 12629] (For-VGA[dT]A[dV]V[dV]W[dT]W[dL]W[dV]W-NHCH2CH2OH) | 1.01 | - | 100%
10 | CC(C)C[C@@H](NC(=O)[C@H](C)NC(=O)[C@H](NC(=O)[C@H](C)NC(=O)CNC(=O)[C@@H](NC=O)C(C)C)C(C)C)C(=O)N[C@H](C(=O)N[C@H](CC(C)C)C(=O)N[C@@H](Cc1c[nH]c2ccccc12)C(=O)N[C@H](CC(C)C)C(=O)N[C@@H](Cc1c[nH]c2ccccc12)C(=O)N[C@@H](C(=O)N[C@@H](Cc1c[nH]c2ccccc12)C(=O)N[C@@H](C(=O)N[C@@H](Cc1c[nH]c2ccccc12)C(=O)NCCO)[C@H](C)O)[C@H](C)O)C(C)C [compound 4322] (For-VGA[dV]A[dL]V[dL]W[dL]W[dT]W[dT]W-NHCH2CH2OH) | 1.05 | - | 100%
11 | CC(C)C[C@@H](NC(=O)[C@H](C)NC(=O)[C@H](NC(=O)[C@H](C)NC(=O)CNC(=O)[C@@H](NC=O)C(C)C)C(C)C)C(=O)N[C@H](C(=O)N[C@@H](C(=O)N[C@@H](Cc1c[nH]c2ccccc12)C(=O)N[C@@H](C(=O)N[C@@H](Cc1c[nH]c2ccccc12)C(=O)N[C@H](CC(C)C)C(=O)N[C@@H](Cc1c[nH]c2ccccc12)C(=O)N[C@@H](C(=O)N[C@@H](Cc1c[nH]c2ccccc12)C(=O)NCCO)C(C)C)C(C)C)[C@H](C)O)C(C)C [compound 3206] (For-VGA[dV]A[dL]V[dT]W[dV]W[dL]W[dV]W-NHCH2CH2OH) | 1.19 | - | 97.4%
12 | CC(C)C[C@@H](NC(=O)[C@H](C)NC(=O)CNC(=O)[C@@H](NC=O)C(C)C)C(=O)N[C@@H](C)C(=O)N[C@@H](C(=O)N[C@H](C(=O)N[C@@H](C(=O)N[C@@H](Cc1c[nH]c2ccccc12)C(=O)N[C@@H](C(=O)N[C@@H](Cc1c[nH]c2ccccc12)C(=O)N[C@@H](C(=O)N[C@@H](Cc1c[nH]c2ccccc12)C(=O)N[C@H](CC(C)C)C(=O)N[C@@H](Cc1c[nH]c2ccccc12)C(=O)NCCO)C(C)C)C(C)C)[C@H](C)O)C(C)C)C(C)C [compound 285] (For-VGA[dL]A[dV]V[dT]W[dV]W[dV]W[dL]W-NHCH2CH2OH) | 1.08 | - | 100%
13 | CC(C)C[C@@H](NC(=O)[C@H](C)NC(=O)CNC(=O)[C@@H](NC=O)C(C)C)C(=O)N[C@@H](C)C(=O)N[C@@H](C(=O)N[C@H](C(=O)N[C@@H](C(=O)N[C@@H](Cc1c[nH]c2ccccc12)C(=O)N[C@@H](C(=O)N[C@@H](Cc1c[nH]c2ccccc12)C(=O)N[C@H](CC(C)C)C(=O)N[C@@H](Cc1c[nH]c2ccccc12)C(=O)N[C@H](CC(C)C)C(=O)N[C@@H](Cc1c[nH]c2ccccc12)C(=O)NCCO)[C@H](C)O)C(C)C)C(C)C)[C@H](C)O [compound 1592] (For-VGA[dL]A[dT]V[dV]W[dT]W[dL]W[dL]W-NHCH2CH2OH) | 1.03 | - | 100%
